Results reported in patent publication US8927560B2, “4-Aza-2, 3-didehydropodophyllotoxin compounds and process for the preparation thereof” (Council of Scientific & Industrial Research, priority 2010, dated 2015).

Legend:
PC3 = assay: SRB in vitro cytotoxicity assay, PC3 prostate cancer cells; type: cell-based; conditions: Homo sapiens, PC-3, 48 h drug exposure, read-out: In vitro anticancer activity GI50, Prostate PC3
From the text: (§1) Compounds 4a-4z and 4aa-4ae have been evaluated for their in vitro cytotoxicity in selected human cancer cell lines i.e., colon (Colo205), lung (Hop-62, A549), cervix (SiHa), prostate (PC3), oral (KB, DWD, Gurav), Ovarian (A-2780) and breast (MCF7, Zr-75-1) origin by employing the sulforhodamine B (SRB) assay method (Skehn, P.; Storeng, R.; Scudiero, A.; Monks, J.; MeMohan, D.; Vistica, D.; Jonathan, T. W.; Bokesch, H.; Kenney, S.; Boyd M. R. J. Natl. Cancer Inst. 1990, 82, 1107).
(§2) The synthesized compounds have been evaluated for their in vitro cytotoxicity in human cancer cell lines. A protocol of 48 h continuous drug exposure has been used and a sulforhodamine B (SRB) protein assay has been used to estimate cell viability or growth. The cell lines were grown in DMEM medium containing 10% fetal bovine serum and 2 mM L-glutamine and were inoculated into 96 well microtiter plates in […] at plating densities depending on the doubling time of individual cell lines. The microliter plates were incubated at 37_C, 5% CO2, 95% air, and 100% relative humidity for 24 h prior to addition of experimental drugs. Aliquots of […] of the drug dilutions were added to the appropriate microliter wells already containing […] of cells, suiting in the required final drug concentrations. For each compound four concentrations (0.1, 1, 10 and 100 uM) were evaluated and each was done in triplicate wells. Plates were incubated further for 48 h and assay was terminated by the addition of […] of cold trichloro acetic acid (TCA) (final concentration, 10% TCA) and incubated for 60 min at 4_C. The plates were washed five times with tap water and airdried. Sulforhodamine B (SRB) solution ([…]) at 0.4% (w/v) in 1% acetic acid was added to each of the cells, and plates were incubated for 20 min at room temperature. The residual dye was removed by washing five times with 1% acetic acid. The plates were airdried. Bound stain was subsequently eluted with 10 mM trizma base, and the absorbance was read on an ELISA plate reader at a wavelength of 540 nm with 690 nm reference wavelengths. Percent growth was calculated on a plate by plate basis for test wells relative to control wells. The above determinations were repeated three times. Percentage growth was expressed as the (ratio of average absorbance of the test well to the average absorbance of the control wells)*100. Growth inhibition of 50% (GI50) was calculated from [(Ti−Tz)/(C−Tz)]*100 ¼ 50, which is the drug concentration resulting in a 50% reduction in the net protein increase (as measured by SRB staining) in control cells during the drug incubation. Where, Tz ¼ Optical density at time zero, OD of control ¼ C, and OD of test growth in the presence of drug ¼ Ti.

Colo 205 = assay: SRB in vitro cytotoxicity assay, Colo 205 colon cancer cells; type: cell-based; conditions: Homo sapiens, 48 h drug exposure, read-out: In vitro anticancer activity GI50, Colon Colo 205
From the text: as §1, §2

Zr-75-1 = assay: SRB in vitro cytotoxicity assay, Zr-75-1 breast cancer cells; type: cell-based; conditions: Homo sapiens, 48 h drug exposure, read-out: In vitro anticancer activity GI50, Breast Zr-75-1
From the text: as §1, §2

MCF7 = assay: SRB in vitro cytotoxicity assay, MCF7 breast cancer cells; type: cell-based; conditions: Homo sapiens, 48 h drug exposure, read-out: In vitro anticancer activity GI50, Breast MCF7
From the text: as §1, §2

DWD = assay: SRB in vitro cytotoxicity assay, DWD oral cancer cells; type: cell-based; conditions: Homo sapiens, 48 h drug exposure, read-out: In vitro anticancer activity GI50, Oral DWD
From the text: as §1, §2

KB = assay: SRB in vitro cytotoxicity assay, KB oral cancer cells; type: cell-based; conditions: Homo sapiens, 48 h drug exposure, read-out: In vitro anticancer activity GI50, Oral KB
From the text: as §1, §2

SiHa = assay: SRB in vitro cytotoxicity assay, SiHa cervix cancer cells; type: cell-based; conditions: Homo sapiens, 48 h drug exposure, read-out: In vitro anticancer activity GI50, Cervix SiHa
From the text: as §1, §2

A-549 = assay: SRB in vitro cytotoxicity assay, A-549 lung cancer cells; type: cell-based; conditions: Homo sapiens, A549, 48 h drug exposure, read-out: In vitro anticancer activity GI50, Lung A-549
From the text: as §1, §2

A-2780 = assay: SRB in vitro cytotoxicity assay, A-2780 ovarian cancer cells; type: cell-based; conditions: Homo sapiens, A2780, 48 h drug exposure, read-out: In vitro anticancer activity GI50, Ovarian A-2780
From the text: as §1, §2

Gurav = assay: SRB in vitro cytotoxicity assay, Gurav oral cancer cells; type: cell-based; conditions: Homo sapiens, 48 h drug exposure, read-out: In vitro anticancer activity GI50, Oral Gurav
From the text: as §1, §2

Hop62 = assay: SRB in vitro cytotoxicity assay, Hop62 lung cancer cells; type: cell-based; conditions: Homo sapiens, HOP-62, 48 h drug exposure, read-out: In vitro anticancer activity GI50, Lung Hop62
From the text: as §1, §2

Row | SMILES | GI50 (PC3) [nM] | GI50 (Colo 205) [nM] | GI50 (Zr-75-1) [nM] | GI50 (MCF7) [nM] | GI50 (DWD) [nM] | GI50 (KB) [nM] | GI50 (SiHa) [nM] | GI50 (A-549) [nM] | GI50 (A-2780) [nM] | GI50 (Gurav) [nM] | GI50 (Hop62) [nM] | melting point [°C]
1 | COc1cccc2c1C(=O)c1c(O)c3c(c(O)c1C2=O)C[C@@](O)(C(=O)CO)C[C@@H]3O[C@H]1C[C@H](N)[C@H](O)[C@H](C)O1 [ADR, adriamycin, reference compound] | 160 | < 100 | 110 | 130 | < 100 | 130 | 160 | < 100 | < 100 | < 100 | 150 | –
2 | COc1nc2c(c(OC)n1)C(c1cc(OC)c(OC)c(OC)c1)C1=C(COC1=O)N2 (stereo not drawn) [Compound 4a, 2,4-dimethoxy-5-(3,4,5-trimethoxyphenyl)-5,6,8,9-tetrahydrofuro[3′,4′:5,6]pyrido[2,3-d]pyrimidin-6-one] | 2400 | 160 | 2200 | 2400 | 2400 | 170 | – | 2100 | – | 2000 | 2500 | 299 to 300
3 | COc1ccc(-c2noc3c2C(c2ccc(OC)c(O)c2)C2=C(COC2=O)N3)cc1 (stereo not drawn) [Compound 4ab, 4-(3-hydroxy-4-methoxyphenyl)-3-(4-methoxyphenyl)-4,5,7,8-tetrahydrofuro[3′,4′:5,6]pyrido[3,2-d]isoxazol-5-one] | 160 | 2700 | 140 | 190 | < 100 | 170 | – | < 100 | 160 | 140 | 140 | 219 to 221
4 | COc1cc(C2C3=C(COC3=O)Nc3onc(-c4ccc(Cl)cc4)c32)cc(OC)c1OC (stereo not drawn) [Compound 4ac, 3-(4-chlorophenyl)-4-(3,4,5-trimethoxyphenyl)-4,5,7,8-tetrahydrofuro[3′,4′:5,6]pyrido[3,2-d]isoxazol-5-one] | 2300 | – | 190 | 2300 | 2000 | 2400 | 2300 | < 100 | 2000 | 180 | 2500 | 248 to 249
5 | COc1cc(C2C3=C(COC3=O)Nc3ccc4cc(C)[nH]c4c32)cc(OC)c1OC (stereo not drawn) [Compound 4j, 2-methyl-10-(3,4,5-trimethoxyphenyl)-6,7,9,10-tetrahydro-1H-furo[3,4-b]pyrrolo[2,3-f]quinolin-9-one] | – | – | – | – | – | – | 2600 | – | – | – | – | –
6 | COc1ccc(C2C3=C(COC3=O)Nc3ccc4cc(C)[nH]c4c32)cc1O (stereo not drawn) [Compound 4k, 10-(3-hydroxy-4-methoxyphenyl)-2-methyl-6,7,9,10-tetrahydro-1H-furo[3,4-b]pyrrolo[2,3-f]quinolin-9-one] | 170 | 2700 | 170 | 2000 | 2000 | 2100 | – | < 100 | 190 | 170 | 160 | 293 to 294
7 | COc1cc(C2C3=C(COC3=O)Nc3ccc4cn[nH]c4c32)cc(OC)c1OC (stereo not drawn) [Compound 4n, 10-(3,4,5-trimethoxyphenyl)-6,7,9,10-tetrahydro-1H-furo[3,4-b]pyrazolo[3,4-f]quinolin-9-one] | 190 | 2700 | 160 | 190 | < 100 | 2100 | 190 | < 100 | 140 | 160 | 2100 | –
8 | COc1cc(C2C3=C(COC3=O)Nc3ccc4cn[nH]c4c32)ccc1O (stereo not drawn) [Compound 4o, 10-(4-hydroxy-3-methoxyphenyl)-6,7,9,10-tetrahydro-1H-furo[3,4-b]pyrazolo[3,4-f]quinolin-9-one] | 2300 | 2000 | 2100 | 2000 | – | – | – | – | – | – | 2800 | 238 to 240
9 | COc1ccc(C2C3=C(COC3=O)Nc3ccc4cn[nH]c4c32)cc1[N+](=O)[O-] (stereo not drawn) [Compound 4r, 10-(4-methoxy-3-nitrophenyl)-6,7,9,10-tetrahydro-1H-furo[3,4-b]pyrazolo[3,4-f]quinolin-9-one] | 160 | 2200 | 140 | 160 | < 100 | 120 | – | < 100 | 130 | 140 | 130 | 217 to 218
10 | COc1cc(C2C3=C(COC3=O)Nc3ccc4ncsc4c32)ccc1O (stereo not drawn) [Compound 4t, 10-(4-hydroxy-3-methoxyphenyl)-6,7,9,10-tetrahydrofuro[3,4-b][1,3]thiazolo[5,4-f]quinolin-9-one] | 160 | 2200 | < 100 | 150 | < 100 | 150 | – | < 100 | 150 | 140 | 120 | 296 to 297
11 | COc1ccc(C2C3=C(COC3=O)Nc3ccc4ncsc4c32)cc1O (stereo not drawn) [Compound 4u, 10-(3-hydroxy-4-methoxyphenyl)-6,7,9,10-tetrahydrofuro[3,4-b][1,3]thiazolo[5,4-f]quinolin-9-one] | 2100 | 150 | 160 | 180 | 2000 | 180 | 2000 | < 100 | 180 | 190 | 2300 | 327 to 329
12 | COc1cc(C2C3=C(COC3=O)Nc3ccc4nc(C)sc4c32)ccc1O (stereo not drawn) [Compound 4v, 10-(4-hydroxy-3-methoxyphenyl)-2-methyl-6,7,9,10-tetrahydrofuro[3,4-b][1,3]thiazolo[5,4-f]quinolin-9-one] | 160 | – | 170 | 160 | < 100 | 2000 | 180 | < 100 | 120 | 180 | 170 | 293 to 295
